From PMC9501983, “Transport and Permeation Properties of Dapivirine: Understanding Potential Drug-Drug Interactions” (Pharmaceutics, 2022)

How the values were obtained:
P-gp = molecular target: T1, P-gp (Homo sapiens, UniProt P08183); assay: Bi-directional transport across MDCKII P-gp and WT cell monolayers; format: in vitro ADME
T1 construct: expressed in transfected cells; host or cells: MDCKII (Madin-Darby canine kidney) cells, provided by Dr. Philip E. Empey

MRP1 [1] = molecular target: T2, MRP1 (Homo sapiens, UniProt P33527); assay: ATPase assay (ADP-Glo Max) in MRP1 vesicles; format: biochemical; set-up: purchased Thermo Fisher Scientific; settings: DPV 20 μM; N-ethylmaleimide-S-glutathione 10 mM; 60 min, 37 °C
T2 sequence (P33527 whole entry): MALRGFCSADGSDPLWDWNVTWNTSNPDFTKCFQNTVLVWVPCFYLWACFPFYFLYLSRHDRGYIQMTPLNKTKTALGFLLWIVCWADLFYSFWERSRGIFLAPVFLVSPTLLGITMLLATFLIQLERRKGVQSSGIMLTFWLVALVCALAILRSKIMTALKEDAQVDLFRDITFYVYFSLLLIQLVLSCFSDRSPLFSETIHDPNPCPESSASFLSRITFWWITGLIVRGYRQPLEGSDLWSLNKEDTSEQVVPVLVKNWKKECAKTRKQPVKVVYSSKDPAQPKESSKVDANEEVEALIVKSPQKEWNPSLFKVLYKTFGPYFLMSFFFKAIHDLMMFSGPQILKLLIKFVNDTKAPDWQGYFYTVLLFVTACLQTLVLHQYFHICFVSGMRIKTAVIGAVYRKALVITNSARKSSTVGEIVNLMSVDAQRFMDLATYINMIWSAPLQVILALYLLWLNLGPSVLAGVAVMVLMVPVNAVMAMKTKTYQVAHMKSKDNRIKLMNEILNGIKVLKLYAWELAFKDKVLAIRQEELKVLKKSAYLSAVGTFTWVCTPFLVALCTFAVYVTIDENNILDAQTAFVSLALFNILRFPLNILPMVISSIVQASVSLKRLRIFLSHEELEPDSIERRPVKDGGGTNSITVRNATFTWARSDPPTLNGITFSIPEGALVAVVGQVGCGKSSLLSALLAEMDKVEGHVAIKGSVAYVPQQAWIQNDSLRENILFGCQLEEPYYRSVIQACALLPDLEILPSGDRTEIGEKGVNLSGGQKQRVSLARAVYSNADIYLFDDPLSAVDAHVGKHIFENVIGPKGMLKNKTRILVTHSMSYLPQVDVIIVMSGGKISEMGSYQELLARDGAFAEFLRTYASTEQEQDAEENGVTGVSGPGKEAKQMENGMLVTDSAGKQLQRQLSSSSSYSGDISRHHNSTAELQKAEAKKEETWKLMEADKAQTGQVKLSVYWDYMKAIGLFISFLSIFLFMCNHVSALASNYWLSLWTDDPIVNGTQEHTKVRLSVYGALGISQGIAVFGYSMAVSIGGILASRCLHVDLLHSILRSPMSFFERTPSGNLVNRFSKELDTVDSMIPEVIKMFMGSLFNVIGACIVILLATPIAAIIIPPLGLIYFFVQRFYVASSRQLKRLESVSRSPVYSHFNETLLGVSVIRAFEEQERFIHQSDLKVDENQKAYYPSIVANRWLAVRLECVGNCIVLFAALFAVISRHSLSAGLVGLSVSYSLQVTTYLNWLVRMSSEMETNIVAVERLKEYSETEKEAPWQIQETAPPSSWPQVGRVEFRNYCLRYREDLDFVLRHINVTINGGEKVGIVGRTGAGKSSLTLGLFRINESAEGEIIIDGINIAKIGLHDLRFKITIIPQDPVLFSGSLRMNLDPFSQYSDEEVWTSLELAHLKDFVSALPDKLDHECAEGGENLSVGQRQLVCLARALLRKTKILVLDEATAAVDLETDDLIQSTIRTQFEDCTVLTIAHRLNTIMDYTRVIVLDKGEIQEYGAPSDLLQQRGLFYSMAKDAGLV
Procedure: ATPase activity of MRP1 or MRP4 in transporter overexpressing membrane vesicles (10 μg of protein per assay) was measured by the ADP-Glo Max assay according to manufacturer’s protocol. The assay quantified the amount of ADP produced by the membrane vesicles over 60 min at 37 °C in the ATPase assay buffer (50 mM Tris-MOPS, 50 mM potassium chloride, 5 mM sodium azide, 2 mM dithiothreitol, 2 mM glutathione, 0.1 mM EGTA-Tris, and 10 mM magnesium chloride at pH 7.0). DPV was tested at 20 μM and compared to the baseline ATPase activity. A known MRP1 substrate, N-ethylmaleimide-S-glutathione (prepared by mixing N-ethylmaleimide and glutathione at a 1:1 molar ratio), at 10 mM and a known MRP4 substrate, prostaglandin E2, at 20 μM were used as positive controls. The reaction was initiated with 5 mM ATP and quenched with the ADP-Glo detection buffer. The amount of ADP produced was quantified by recording luminescence on a SpectraMax M3 plate reader (Molecular Devices, San Jose, CA, USA).

MRP1 [2] = test system: MRP1; set-up: method as in PMID 26102284; settings: DPV at 10 μM; cited from earlier work
[3] = DPV tissue permeability across excised human ectocervical tissue (in-line cell); format: in vitro ADME; settings: female, human; 182 µM DPV alone in vaginal fluid simulant pH 4.2, 360 min; read-out: Papp across human cervical tissue
Excerpt: Freshly excised human ectocervical tissue samples from 6 pre-menopausal women were obtained through the Pitt Biospecimen Core at the University of Pittsburgh under an IRB-approved protocol (IRB# PRO09110431). Tissue samples were immersed in ice-cold Dulbecco’s modified Eagle medium during transfer from the surgery site to the laboratory. Tissue samples were then processed as previously reported, where excess stromal tissue was removed using a scalpel, and the epithelium was isolated using a Stadie-Riggs tissue slicer. The isolated epithelium sections were then mounted onto the in-line cell apparatus (PermeGear, Cranford, NJ, USA), a flow-through type Franz cell, with the epithelial side facing the apical compartment. A small piece of tissue sample was fixed in 10% formalin as the pre-treatment control for histology evaluation.
Vaginal fluid simulant was used to prepare drug solutions. Vaginal fluid simulant was prepared using a reported formulation (3.51 g L^−1 sodium chloride, 1.40 g L^−1 potassium hydroxide, 0.22 g L^−1 calcium hydroxide, 0.018 g L^−1 bovine serum albumin, 2.00 g L^−1 lactic acid, 1.00 g L^−1 acetic acid, 0.16 g L^−1 glycerin, 0.4 g L^−1 urea, and 5.0 g L^−1 glucose) and adjusted to pH 4.2 with 1N hydrochloric acid. To evaluate the impact of MIC on DPV tissue permeability, 450 μL of a mixture containing 182 µM (60 μg g^−1) DPV and 63 mM (30 mg g^−1) MIC was added to the apical compartment and compared to 182 µM (60 μg g^−1) DPV alone. […] One half of the tissue sample was fixed in 10% formalin for subsequent histological evaluation, while the other half was used for drug quantification. To quantify drug tissue levels, each tissue sample was digested overnight in 2 mL Solvable held at 50 °C. […] Samples were then cooled to room temperature and 1.5 mL of each sample was used for quantification. To quantify ^3H-DPV and ^14C-mannitol, each vial of collected sample was mixed with 2 mL scintillation cocktail and analyzed on an LS6500 liquid scintillation counter. Papp was calculated using Equation (2) as described above.

MRP1 [4] = molecular target: T2, MRP1
Procedure: To investigate if DPV was a substrate or inhibitor of MRP1 or MRP4, ATP-dependent and independent uptake of DPV (in the substrate study) or estradiol 17 β-D-glucuronide (a known MRP1/MRP4 substrate in the inhibitor study) was measured using 50 μg MRP1, MRP4, and control vesicles. […] The uptake assay was performed at a total volume of 50 μL with either 4 mM ATP or AMP, 2 mM glutathione, 10 μM DPV or estradiol 17 β-D-glucuronide as substrates, with and without 20 μM DPV or MK571 as inhibitors. […] To quantify the uptake amount of DPV or estradiol 17 β-D-glucuronide, 4 μCi mL^−1 3H-DPV or ^3H- estradiol 17 β-D-glucuronide was added to the assay mixture.
The vesicular uptake assays were performed under the above-mentioned conditions. The membrane vesicles were first incubated with respective inhibitor solution or blank assay buffer. The reaction was then initiated by adding the remaining components of the assay mixture to the vesicles and incubated at 37 °C for 3 min. To terminate the reaction, 200 μL ice-cold buffer was added to each well. The samples were then transferred to a glass fiber filter plate and washed 5 times by rapid filtration using a vacuum manifold (IBI Scientific, Dubuque, IA, USA). To quantify ^3H-DPV and ^3H-estradiol 17 β-D-glucuronide uptake, the washed vesicles were lysed with scintillation cocktail at room temperature for 20 min. The collected samples were analyzed on an LS6500 liquid scintillation counter (Beckman Coulter, Brea, CA, USA).
If ATP-dependent uptake was observed, the uptake amount by active transport was calculated using Equation (1):(1) Normalized uptake=mean uptake with ATP−mean uptake with AMP

T1 sequence (P08183 whole entry): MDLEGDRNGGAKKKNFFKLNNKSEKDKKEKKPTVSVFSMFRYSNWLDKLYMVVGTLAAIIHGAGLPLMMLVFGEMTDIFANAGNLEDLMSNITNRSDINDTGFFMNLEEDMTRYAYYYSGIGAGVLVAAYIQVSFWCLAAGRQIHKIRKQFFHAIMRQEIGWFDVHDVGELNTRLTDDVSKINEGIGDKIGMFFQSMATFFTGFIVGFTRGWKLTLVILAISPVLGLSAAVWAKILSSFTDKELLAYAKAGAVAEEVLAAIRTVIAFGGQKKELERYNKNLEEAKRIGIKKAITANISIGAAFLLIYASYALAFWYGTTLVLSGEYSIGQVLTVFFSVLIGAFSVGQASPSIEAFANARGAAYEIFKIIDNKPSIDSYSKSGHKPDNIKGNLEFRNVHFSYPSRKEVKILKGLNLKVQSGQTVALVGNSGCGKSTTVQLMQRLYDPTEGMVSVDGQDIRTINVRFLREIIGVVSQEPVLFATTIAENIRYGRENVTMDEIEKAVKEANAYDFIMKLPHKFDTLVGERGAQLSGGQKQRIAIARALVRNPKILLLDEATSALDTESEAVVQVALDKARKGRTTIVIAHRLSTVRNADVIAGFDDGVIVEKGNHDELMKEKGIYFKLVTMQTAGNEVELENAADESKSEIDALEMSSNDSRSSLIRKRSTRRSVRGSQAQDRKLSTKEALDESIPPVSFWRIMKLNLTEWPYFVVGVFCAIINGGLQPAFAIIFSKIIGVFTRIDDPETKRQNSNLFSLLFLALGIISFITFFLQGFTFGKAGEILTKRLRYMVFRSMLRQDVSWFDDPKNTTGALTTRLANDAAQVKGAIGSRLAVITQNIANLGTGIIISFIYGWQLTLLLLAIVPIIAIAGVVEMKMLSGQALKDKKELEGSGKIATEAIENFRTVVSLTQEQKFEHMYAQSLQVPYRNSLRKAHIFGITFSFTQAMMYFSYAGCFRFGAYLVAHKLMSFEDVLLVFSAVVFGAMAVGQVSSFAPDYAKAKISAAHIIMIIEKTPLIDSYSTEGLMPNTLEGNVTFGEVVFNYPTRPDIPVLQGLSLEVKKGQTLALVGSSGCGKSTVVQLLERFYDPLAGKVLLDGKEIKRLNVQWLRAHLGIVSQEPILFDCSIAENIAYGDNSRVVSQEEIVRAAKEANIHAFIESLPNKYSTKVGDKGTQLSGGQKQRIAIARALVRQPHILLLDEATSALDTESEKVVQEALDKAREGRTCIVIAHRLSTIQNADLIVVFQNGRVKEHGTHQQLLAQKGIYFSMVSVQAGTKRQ

With `Cc1cc(C)c(Nc2ccnc(Nc3ccc(C#N)cc3)n2)c(C)c1` [DPV, dapivirine] the “DPV ER in MDCKII P-gp cells with verapamil, reduced to % of ER without” value (P-gp; 0.5 μM DPV, 100 μM verapamil) was 65%, the “Impact on Papp of digoxin across MDCKII P-gp monolayers (either direction)” value (P-gp; 5 μM DPV, 1 μM digoxin) was “no significant impact” and the “Substrate status for P-gp” value (P-gp; cellular system) was “not a substrate”. The efflux ratio at 90 min, 0.5 μM (P-gp; dog, MDCK-MDR1, pH 7.4, 0.5 μM DPV, read-out: Net flux ratio (ER MDCKII P-gp / ER MDCKII WT)) was 1.31, the “ATPase activity in MRP1 vesicles, % of baseline” value (MRP1 [1]) was “no significant stimulation” and the “Effect on MRP1 expression level” value (MRP1 [2]) was “upregulated”. For the same compound, the Papp at 360 min, 182 µM [3] was 0.88 ± 0.53 ×10⁻⁶ cm/s, the “Substrate status for MRP1” value (MRP1 [4]) was “not a substrate” and the “Normalized estradiol 17 β-D-glucuronide uptake by MRP1 vesicles co-incubated with inhibitor” value (MRP1 [4]; 10 μM substrate, 20 μM test inhibitor, ATP minus AMP) was 35.83 fmol. For the same compound, the “Active uptake of estradiol 17 β-D-glucuronide by MRP1 vesicles, reduced to % of control” value (MRP1 [4]; 20 µM) was “not significantly affected”.
